Reference: patent US6664065B2, “Measuring viral reverse transcriptase activity” (priority 2000, dated 2003)

Columns and labels:
[1] = biological target: T1, rHIV RT (Human immunodeficiency virus type 1 group M subtype B, UniProt P03366); assay: TaqMan real-time RT-PCR assay of rHIV RT inhibition by a test agent; type: biochemical, HIV
T1 construct: rHIV RT—Worthington Biochemical catalogue No. 5006 (500 U at 12.5 U/μL); purchased Worthington Biochemical 5006
Description: In this regard, oligo dT is used as a template for rHIV RT. Oligo dT is complementary to the polyadenylated RNA-component of the total human heart RNA which present in the reaction mixture. rHIV RT forms cDNA from the oligo dT/RNA complex in the presence of dNTP nucleotides.
Thus, the temperature cycling conditions for rHIV RT were about 25° C. for 10 minutes, followed by about 37° C. for 60 minutes, and finally 95° C. for 5 minutes. At 95° C., the activity of rHIV RT was destroyed.
In this context, the test agent preferably is added when the template RNA, the primer which is complementary to the template RNA, and the dNTPs are mixed in the presence of the sample. Accordingly, although the sample may contain active RT, cDNA transcription by the RT can be inhibited by the presence of the test agent in the reaction mixture.
The inhibiting properties of the test agent are reflected in an increase in CT value for the sample which contains the test agent.
An rHIV RT solution (Master Mix solution)was prepared which contained 5 μL 10× RT reaction buffer, 11 μL 25 mM MgCl2, 10 μL 10 mM dNTP working stock solution, 2.5 μL 50 μM oligo dT, 1 μL RNAse inhibitor and 1.25 μL rHIV RT. The total volume of the Master Mix solution was 30.75 μL.
were added to 30.75 μL of the Master Mix solution. Thus, the reaction mixture contained 50 μL total solution volume.
The controls for the present example included a positive control containing 18.25 μL water plus 1 μL RNA, and a negative control containing 19.25 μL water. […]

[2] = biological target: T2, taq polymerase (Thermus aquaticus, UniProt P19821); assay: AZT included in the PCR reaction mixture in place of dT (TaqMan PCR step); type: biochemical
T2 construct: purchased Perkin Elmer PE 4304437
T2 sequence (P19821 whole entry): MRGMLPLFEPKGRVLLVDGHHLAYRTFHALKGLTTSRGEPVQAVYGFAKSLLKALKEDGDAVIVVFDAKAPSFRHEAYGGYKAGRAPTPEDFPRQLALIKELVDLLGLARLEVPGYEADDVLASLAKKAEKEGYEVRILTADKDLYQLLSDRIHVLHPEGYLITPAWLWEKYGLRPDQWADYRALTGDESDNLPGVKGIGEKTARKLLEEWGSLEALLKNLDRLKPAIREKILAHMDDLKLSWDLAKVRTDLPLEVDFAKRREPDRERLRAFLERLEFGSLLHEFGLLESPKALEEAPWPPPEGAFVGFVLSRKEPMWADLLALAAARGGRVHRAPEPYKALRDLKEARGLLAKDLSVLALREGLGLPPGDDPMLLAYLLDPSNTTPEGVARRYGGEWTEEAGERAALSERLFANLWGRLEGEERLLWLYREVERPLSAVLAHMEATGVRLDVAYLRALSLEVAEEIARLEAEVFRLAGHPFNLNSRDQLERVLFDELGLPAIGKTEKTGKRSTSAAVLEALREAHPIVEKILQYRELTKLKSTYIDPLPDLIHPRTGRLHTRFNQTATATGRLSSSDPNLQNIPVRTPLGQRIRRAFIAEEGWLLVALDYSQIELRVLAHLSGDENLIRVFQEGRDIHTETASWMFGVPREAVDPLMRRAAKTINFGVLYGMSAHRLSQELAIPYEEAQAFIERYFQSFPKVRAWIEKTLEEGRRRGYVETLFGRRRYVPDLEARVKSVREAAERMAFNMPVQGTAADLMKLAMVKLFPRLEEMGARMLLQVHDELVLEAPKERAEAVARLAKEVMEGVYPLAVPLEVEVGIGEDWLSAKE
Excerpt: Next, an aliquot of the cDNA formed in the RT step above is brought into the Taqman® instrument (PE Model 7700) and put into a reaction mixture which contains Taqman® Universal master mix (taq polymerase in buffer), beta actin-specific forward primer, beta actin-specific reverse primer, and beta actin Taqman® probe. The PCR step takes place in the instrument under standard Taqman® PCR conditions. Although, as described above, the present method is depicted as a two test tube reaction, one skilled in the art will realize that these steps can be combined in a single reaction vessel.
The transcriptase reaction was initiated by placing the reaction mixture in a MWG Thermocycler, or equivalent, under thermocycling conditions at 25° C. for 10 minutes, then at 37° C. for 60 minutes, and finally at 95° C. for 5 minutes. This final thermocycling step deactivated the rHIV RT. Next 5 μL of the post-thermocycle RT reaction mixture, which presumably contained cDNA, were added to 45 μL of the Master Mix solution. The Master Mix Solution contained 25 μL 2×Taqman Universal Master Mix, 5 μL beta Actin Forward Primer, 5 μL Beta Actin Reverse Primer and […]. Thus, the total PCR reaction mixture contained 50 μL. […]

[3] = AZT 1.25 mM down to 250 μM in RT reaction mixture with a fixed concentration of dT, all concentrations

For `Cc1cn([C@H]2C[C@H](N=[N+]=[N-])[C@@H](CO)O2)c(=O)[nH]c1=O` [AZT], the “amplification of cDNA after the PCR step” value ([1]; AZT 250 μM to 1.25 mM added to the rHIV-RT reaction mixture in place of dT) was “no amplification of cDNA was observed”, the inhibition of activity [1, 3] was 100% and the “observed CT” value [1, 3] was “greater than 40 cycles”. The “amplification of the cDNA after the PCR step” value [2] was “NO amplification”.
